From patent publication US11076595B2, “1-(n,n-disubstituted carbamoyl) 4-(substituted sulfonyl)triazolin-5-one derivative, 4-(n,n-disubstituted carbamoyl) 1-(substituted sulfonyl)triazolin-5-one derivative, and herbicide containing said derivative as active ingredient” (HOKKO CHEMICAL INDUSTRY CO., LTD., priority 2017, dated 2021) come the findings set out here.

The structures appear in SMILES notation.

Assay type in all cases: in vivo
Experiment [1] concerns Echinochloa crus-galli. Put plainly: Test Example 11: herbicidal effect test by soil treatment in paddy field. As to conditions: 120 g/10a active ingredient, 14 days after treatment. The essentials:
(§1)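 Weed suppression rate (%) was calculated as (1 − mean treated dry weight / mean untreated dry weight) × 100 at 14 days after treatment, two replicates per plot. Seeds were sown at 0–1 cm in flooded (about 3 cm) puddled paddy soil and treated immediately at 120 g active ingredient per 10 are.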

Experiment [2] concerns Lindernia pyxidaria. The description is as above. Particulars: 120 g/10a active ingredient, 14 days after treatment. In short, it runs like this:
as §1

Experiment [3] relates to Monochoria vaginalis. The experiment is described as above. As to conditions: 120 g/10a active ingredient, 14 days after treatment. The essentials: as §1
Experiment [4] deals with Scirpus juncoides. The experiment is described as above. Particulars: 120 g/10a active ingredient, 14 days after treatment. In short, it runs like this: as §1
The test system of experiment [5] is Echinochloa crus-galli. Put plainly: Test Example 12: herbicidal effect test by treatment during growing period in paddy field. Particulars: 120 g/10a; treatment seven days after sowing in flooded paddy pot; assessed 14 days after treatment. In short, it runs like this:
(§2)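 Read-out: weed suppression (%) = (1 − treated/untreated mean dry weight) × 100, scored 14 days after treatment with two replications. Pots held puddled paddy soil, 30 seeds per species sown 0–1 cm, flooded ~3 cm. Post-emergence dropwise water application at 7 days after sowing, 120 g a.i./10 are.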

For experiment [6], the system named is Lindernia pyxidaria. The description is as above. As to conditions: 120 g/10a; treatment seven days after sowing in flooded paddy pot; assessed 14 days after treatment. In short, it runs like this:
as §2

The subject of experiment [7] is Monochoria vaginalis. The description is as above. Particulars: 120 g/10a; treatment seven days after sowing in flooded paddy pot; assessed 14 days after treatment. In short, it runs like this:
as §2

Experiment [8] relates to Scirpus juncoides. The description is as above. As to conditions: 120 g/10a; treatment seven days after sowing in flooded paddy pot; assessed 14 days after treatment. In short, it runs like this: as §2
In experiment [9] the test system is Amaranthus viridis. Put plainly: Test Example 13: herbicidal effect test by soil treatment in upland field. As to conditions: 120 g/10a, 14 days after treatment. In short, it runs like this: (§3)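 Suppression rate (%) is calculated from mean plant dry weight in treated versus untreated plots, 14 days after treatment, with duplicate plots per concentration. Seeds (20 per species) are mixed into the surface centimetre of alluvial soil, and the diluted emulsifiable concentrate is sprayed onto the soil the following day at 120 g a.i. per 10 are.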

Experiment [10] has as its system Chenopodium album. The description is as above. Particulars: 120 g/10a, 14 days after treatment. In short, it runs like this:
as §3

The subject of experiment [11] is Echinochloa crus-galli. Described as above. As to conditions: 120 g/10a, 14 days after treatment. The essentials: as §3
Experiment [12] has as its system crabgrass. Described as above. As to conditions: 120 g/10a, 14 days after treatment. The essentials: as §3
The test system of experiment [13] is Chenopodium album. Put plainly: Test Example 14: herbicidal effect test by foliage treatment in upland field. Particulars: 7 days after sowing, 120 g/10a, 14 days after treatment. In short, it runs like this: (§4)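 Emulsifiable concentrate, water-diluted, is applied post-emergence to 7-day-old sowings in field soil at 120 g active ingredient per 10 are. The weed suppression rate derives from average dry weights versus untreated controls, measured 14 days later.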

Experiment [14] concerns crabgrass. Described as above. Particulars: 7 days after sowing, 120 g/10a, 14 days after treatment. The essentials: as §4
Experiment [15] has as its system Amaranthus viridis. Described as above. As to conditions: 7 days after sowing, 120 g/10a, 14 days after treatment. In short, it runs like this: as §4
Experiment [16] has as its system Echinochloa crus-galli. The experiment is described as above. Particulars: 7 days after sowing, 120 g/10a, 14 days after treatment. In short, it runs like this: as §4

As to `CC(C)N(C(=O)n1cnn(S(=O)(=O)c2ccc(F)cc2)c1=O)c1ccc(F)cc1Cl` [Compound 11-482], the “Weed suppression rate (%) Echinochloa crus-galli” value in the experiment with Echinochloa crus-galli [1] and in the experiment on Echinochloa crus-galli [5] was 90% in each case. The “Weed suppression rate (%) Lindemia pyxidaria” value with Lindernia pyxidaria [2] and in the experiment on Lindernia pyxidaria [6] was 80% each time. For the same molecule, the “Weed suppression rate (%) Monochoria vaginalis” value with Monochoria vaginalis [3] and with Monochoria vaginalis [7] was 80% in each case. Also, the “Weed suppression rate (%) Scirpus juncoides” value with Scirpus juncoides [4] and in the experiment with Scirpus juncoides [8] was 90% in each case. Further, the “herbicidal effect, Amaranthus viridis” value with Amaranthus viridis [9] and with Amaranthus viridis [15] was 90% each time. For the same molecule, the “herbicidal effect, Chenopodium album” value in the experiment with Chenopodium album [10] and in the experiment with Chenopodium album [13] was 80% in each case. Moreover, the “herbicidal effect, Echinochloa crus-galli” value in the experiment on Echinochloa crus-galli [11] and in the experiment with Echinochloa crus-galli [16] was 80% throughout. Besides, the “herbicidal effect, Crabgrass” value in the experiment on crabgrass [12] and in the experiment on crabgrass [14] was 90% each time.
Consider `CC(C)N(C(=O)n1cnn(S(=O)(=O)C2CCCC2)c1=O)c1ccc(F)cc1F` [Compound 11-273], for which the “Weed suppression rate (%) Echinochloa crus-galli” value in the experiment with Echinochloa crus-galli [1] and in the experiment with Echinochloa crus-galli [5] was 100% each time. In addition, the “Weed suppression rate (%) Lindemia pyxidaria” value with Lindernia pyxidaria [2] came out at 100%; in the experiment with Lindernia pyxidaria [6], 90%. Further, the “Weed suppression rate (%) Monochoria vaginalis” value in the experiment with Monochoria vaginalis [3] and in the experiment on Monochoria vaginalis [7] was 90% in each case. Also, the “Weed suppression rate (%) Scirpus juncoides” value with Scirpus juncoides [4] and in the experiment on Scirpus juncoides [8] was 90% each time. Also, the “herbicidal effect, Amaranthus viridis” value in the experiment with Amaranthus viridis [9] was found to be 60%; with Amaranthus viridis [15], 90%. For the same molecule, the “herbicidal effect, Chenopodium album” value in the experiment with Chenopodium album [10] is 90%; in the experiment on Chenopodium album [13], 80%. The “herbicidal effect, Echinochloa crus-galli” value came to 90% with Echinochloa crus-galli [11] and 80% in the experiment on Echinochloa crus-galli [16]. For the same molecule, the “herbicidal effect, Crabgrass” value in the experiment on crabgrass [12] is on record as 100%; in the experiment with crabgrass [14] it was 90%.
Regarding `CC(C)N(C(=O)n1cnn(S(=O)(=O)C(C)C)c1=O)c1ccc(Cl)cn1` [Compound 11-85], the “Weed suppression rate (%) Echinochloa crus-galli” value in the experiment with Echinochloa crus-galli [1] and in the experiment with Echinochloa crus-galli [5] was 90% throughout. The entries for the “Weed suppression rate (%) Lindemia pyxidaria” value in the experiment on Lindernia pyxidaria [2] and with Lindernia pyxidaria [6] were 80% and 90%, respectively. In addition, the “Weed suppression rate (%) Monochoria vaginalis” value is 80% in the experiment with Monochoria vaginalis [3] and 90% in the experiment on Monochoria vaginalis [7]. The “Weed suppression rate (%) Scirpus juncoides” value with Scirpus juncoides [4] was 90%; in the experiment with Scirpus juncoides [8] it was 70%. Moreover, the “herbicidal effect, Amaranthus viridis” value in the experiment with Amaranthus viridis [9] and in the experiment with Amaranthus viridis [15] was 90% in each case. The results for the “herbicidal effect, Chenopodium album” value in the experiment with Chenopodium album [10] and in the experiment with Chenopodium album [13] were 60% and 80%, respectively. Besides, the “herbicidal effect, Echinochloa crus-galli” value is on record as 100% in the experiment with Echinochloa crus-galli [11] and 80% with Echinochloa crus-galli [16]. Besides, the “herbicidal effect, Crabgrass” value came out at 100% in the experiment on crabgrass [12] and 90% in the experiment with crabgrass [14].
As for `Cc1ccccc1S(=O)(=O)n1ncn(C(=O)N(c2ccc(F)cc2F)C(C)C)c1=O` [Compound 11-623], the “Weed suppression rate (%) Echinochloa crus-galli” value in the experiment with Echinochloa crus-galli [1] and in the experiment with Echinochloa crus-galli [5] was 100% in each case. In addition, the “Weed suppression rate (%) Lindemia pyxidaria” value in the experiment with Lindernia pyxidaria [2] and in the experiment with Lindernia pyxidaria [6] was 100% throughout. Moreover, the “Weed suppression rate (%) Monochoria vaginalis” value in the experiment on Monochoria vaginalis [3] amounted to 90%; with Monochoria vaginalis [7], 100%. Moreover, the “Weed suppression rate (%) Scirpus juncoides” value in the experiment with Scirpus juncoides [4] and in the experiment on Scirpus juncoides [8] was 90% each time. Also, the results for the “herbicidal effect, Amaranthus viridis” value in the experiment with Amaranthus viridis [9] and with Amaranthus viridis [15] were 0% and 40%, respectively. For the same molecule, the “herbicidal effect, Chenopodium album” value was determined as 0% in the experiment with Chenopodium album [10] and 40% with Chenopodium album [13]. Moreover, the “herbicidal effect, Echinochloa crus-galli” value in the experiment on Echinochloa crus-galli [11] stood at 100%; in the experiment on Echinochloa crus-galli [16], 80%. In addition, the “herbicidal effect, Crabgrass” value is 90% in the experiment with crabgrass [12] and 60% in the experiment with crabgrass [14].
Take `CC(C)N(C(=O)n1cnn(S(=O)(=O)C2CCCCC2)c1=O)c1ccc(F)cc1F` [Compound 11-294]: the “Weed suppression rate (%) Echinochloa crus-galli” value in the experiment on Echinochloa crus-galli [1] and with Echinochloa crus-galli [5] was 100% in each case. In addition, the results for the “Weed suppression rate (%) Lindemia pyxidaria” value in the experiment on Lindernia pyxidaria [2] and with Lindernia pyxidaria [6] were 100% and 80%, respectively. Moreover, the “Weed suppression rate (%) Monochoria vaginalis” value in the experiment with Monochoria vaginalis [3] was 100%; in the experiment on Monochoria vaginalis [7] it was 90%. Further, the “Weed suppression rate (%) Scirpus juncoides” value in the experiment with Scirpus juncoides [4] is reported as 100%; in the experiment on Scirpus juncoides [8], 90%. The “herbicidal effect, Amaranthus viridis” value with Amaranthus viridis [9] and in the experiment on Amaranthus viridis [15] was 90% throughout. Also, the “herbicidal effect, Chenopodium album” value with Chenopodium album [10] and in the experiment with Chenopodium album [13] was 80% each time. Besides, the “herbicidal effect, Echinochloa crus-galli” value in the experiment on Echinochloa crus-galli [11] and in the experiment with Echinochloa crus-galli [16] was 80% each time. In addition, the “herbicidal effect, Crabgrass” value in the experiment on crabgrass [12] and in the experiment with crabgrass [14] was 90% throughout.
Turning to `CC(C)N(C(=O)n1cnn(S(=O)(=O)c2ccc(C(C)(C)C)cc2)c1=O)c1ccc(Cl)cn1` [Compound 11-706], the “Weed suppression rate (%) Echinochloa crus-galli” value with Echinochloa crus-galli [1] was 100%; in the experiment with Echinochloa crus-galli [5], 80%. Also, the “Weed suppression rate (%) Lindemia pyxidaria” value with Lindernia pyxidaria [2] is on record as 100%; in the experiment with Lindernia pyxidaria [6] it was 80%. Further, the “Weed suppression rate (%) Monochoria vaginalis” value with Monochoria vaginalis [3] and in the experiment with Monochoria vaginalis [7] was 80% each time. The “Weed suppression rate (%) Scirpus juncoides” value in the experiment on Scirpus juncoides [4] is on record as 90%; with Scirpus juncoides [8], 70%. For the same molecule, the “herbicidal effect, Amaranthus viridis” value with Amaranthus viridis [9] is 50%; in the experiment on Amaranthus viridis [15], 70%. Moreover, the “herbicidal effect, Chenopodium album” value is given as 50% in the experiment with Chenopodium album [10] and 40% in the experiment on Chenopodium album [13]. The “herbicidal effect, Echinochloa crus-galli” value with Echinochloa crus-galli [11] is listed as 80%; with Echinochloa crus-galli [16], 0%. In addition, the “herbicidal effect, Crabgrass” value with crabgrass [12] is listed as 80%; in the experiment with crabgrass [14], 50%.
As for `CC(C)N(C(=O)n1cnn(S(=O)(=O)N(C)C)c1=O)c1ccc(F)cc1Cl` [Compound 11-1071], the “Weed suppression rate (%) Echinochloa crus-galli” value with Echinochloa crus-galli [1] and in the experiment on Echinochloa crus-galli [5] was 90% in each case. Also, the “Weed suppression rate (%) Lindemia pyxidaria” value with Lindernia pyxidaria [2] and in the experiment on Lindernia pyxidaria [6] was 80% each time. Besides, the “Weed suppression rate (%) Monochoria vaginalis” value in the experiment on Monochoria vaginalis [3] and in the experiment with Monochoria vaginalis [7] was 80% throughout. Besides, the “Weed suppression rate (%) Scirpus juncoides” value in the experiment with Scirpus juncoides [4] and in the experiment with Scirpus juncoides [8] was 90% in each case. Besides, the “herbicidal effect, Amaranthus viridis” value in the experiment with Amaranthus viridis [9] and in the experiment with Amaranthus viridis [15] was 90% each time. Besides, the “herbicidal effect, Chenopodium album” value in the experiment with Chenopodium album [10] and in the experiment with Chenopodium album [13] was 80% in each case. In addition, the “herbicidal effect, Echinochloa crus-galli” value with Echinochloa crus-galli [11] and with Echinochloa crus-galli [16] was 80% throughout. Besides, the “herbicidal effect, Crabgrass” value with crabgrass [12] and in the experiment on crabgrass [14] was 90% throughout.
Consider `CC(C)CS(=O)(=O)n1ncn(C(=O)N(c2ccc(F)cc2F)C(C)C)c1=O` [Compound 11-94], for which the “Weed suppression rate (%) Echinochloa crus-galli” value in the experiment on Echinochloa crus-galli [1] and with Echinochloa crus-galli [5] was 100% throughout. The “Weed suppression rate (%) Lindemia pyxidaria” value with Lindernia pyxidaria [2] and in the experiment with Lindernia pyxidaria [6] was 100% each time. In addition, the “Weed suppression rate (%) Monochoria vaginalis” value is on record as 100% in the experiment on Monochoria vaginalis [3] and 90% with Monochoria vaginalis [7]. Besides, the “Weed suppression rate (%) Scirpus juncoides” value with Scirpus juncoides [4] and in the experiment on Scirpus juncoides [8] was 90% each time. In addition, the results for the “herbicidal effect, Amaranthus viridis” value in the experiment with Amaranthus viridis [9] and in the experiment with Amaranthus viridis [15] were 80% and 50%, respectively. In addition, the “herbicidal effect, Chenopodium album” value in the experiment with Chenopodium album [10] and with Chenopodium album [13] was 90% in each case. The “herbicidal effect, Echinochloa crus-galli” value in the experiment on Echinochloa crus-galli [11] is 100%; with Echinochloa crus-galli [16] it was 90%. Also, the results for the “herbicidal effect, Crabgrass” value with crabgrass [12] and with crabgrass [14] were 100% and 90%, respectively.
